# Assay results: ChEMBL document CHEMBL3991601, “The target landscape of clinical kinase drugs” (Science, 2017)
# Calls of active or inactive are those of the source.
# Key:
# [1] = target: Actin-related protein 2 (Homo sapiens, UniProt P61160)
# [2] = target: Calcium/calmodulin-dependent protein kinase kinase 2 (Homo sapiens, UniProt Q96RR4)
# [3] = target: Serine/threonine-protein kinase MRCK alpha (Homo sapiens, UniProt Q5VT25)
# [4] = target: Cyclin-dependent kinase 4 (Homo sapiens, UniProt P11802)
# Chain of Cyclin-dependent kinase 4 (P11802 whole entry): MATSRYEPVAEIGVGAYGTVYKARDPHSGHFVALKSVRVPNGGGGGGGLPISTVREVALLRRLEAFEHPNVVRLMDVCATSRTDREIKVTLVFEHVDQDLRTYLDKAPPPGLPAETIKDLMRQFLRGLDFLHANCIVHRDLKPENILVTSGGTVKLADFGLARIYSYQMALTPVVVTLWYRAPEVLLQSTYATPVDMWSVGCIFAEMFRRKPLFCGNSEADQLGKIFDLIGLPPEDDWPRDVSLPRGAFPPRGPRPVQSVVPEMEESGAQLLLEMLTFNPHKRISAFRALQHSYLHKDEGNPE
# [5] = target: T1, dCTP pyrophosphatase 1 (Homo sapiens, UniProt Q9H773)
# T1 sequence (Q9H773 whole entry): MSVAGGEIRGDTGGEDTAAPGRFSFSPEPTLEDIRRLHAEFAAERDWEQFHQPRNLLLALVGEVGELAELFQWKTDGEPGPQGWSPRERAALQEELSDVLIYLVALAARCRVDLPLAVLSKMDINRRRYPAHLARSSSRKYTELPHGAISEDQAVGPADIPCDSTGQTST
# [6] = target: Serine/threonine-protein kinase/endoribonuclease IRE1 (Homo sapiens, UniProt O75460)
# [7] = target: Tyrosine-protein kinase FRK (Homo sapiens, UniProt P42685)
# Chain of Tyrosine-protein kinase FRK (P42685 whole entry): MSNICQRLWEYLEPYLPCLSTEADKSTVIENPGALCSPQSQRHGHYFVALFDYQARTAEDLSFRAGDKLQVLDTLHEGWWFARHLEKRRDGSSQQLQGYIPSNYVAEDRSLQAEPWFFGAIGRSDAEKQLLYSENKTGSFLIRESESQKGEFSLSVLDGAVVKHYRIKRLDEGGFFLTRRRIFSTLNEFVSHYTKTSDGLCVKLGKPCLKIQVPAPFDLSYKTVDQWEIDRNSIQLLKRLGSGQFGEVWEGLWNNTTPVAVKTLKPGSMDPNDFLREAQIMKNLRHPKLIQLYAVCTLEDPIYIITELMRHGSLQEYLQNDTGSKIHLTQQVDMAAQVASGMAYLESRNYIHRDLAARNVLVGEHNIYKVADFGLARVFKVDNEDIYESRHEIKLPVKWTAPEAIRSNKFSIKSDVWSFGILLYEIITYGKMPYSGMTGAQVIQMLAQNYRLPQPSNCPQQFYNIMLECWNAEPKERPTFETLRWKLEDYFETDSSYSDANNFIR
# [8] = target: Tyrosine-protein kinase Lck (Homo sapiens, UniProt P06239)
# [9] = target: T2, Mitogen-activated protein kinase kinase kinase 5 (Homo sapiens, UniProt Q99683)
# T2 sequence (Q99683 whole entry): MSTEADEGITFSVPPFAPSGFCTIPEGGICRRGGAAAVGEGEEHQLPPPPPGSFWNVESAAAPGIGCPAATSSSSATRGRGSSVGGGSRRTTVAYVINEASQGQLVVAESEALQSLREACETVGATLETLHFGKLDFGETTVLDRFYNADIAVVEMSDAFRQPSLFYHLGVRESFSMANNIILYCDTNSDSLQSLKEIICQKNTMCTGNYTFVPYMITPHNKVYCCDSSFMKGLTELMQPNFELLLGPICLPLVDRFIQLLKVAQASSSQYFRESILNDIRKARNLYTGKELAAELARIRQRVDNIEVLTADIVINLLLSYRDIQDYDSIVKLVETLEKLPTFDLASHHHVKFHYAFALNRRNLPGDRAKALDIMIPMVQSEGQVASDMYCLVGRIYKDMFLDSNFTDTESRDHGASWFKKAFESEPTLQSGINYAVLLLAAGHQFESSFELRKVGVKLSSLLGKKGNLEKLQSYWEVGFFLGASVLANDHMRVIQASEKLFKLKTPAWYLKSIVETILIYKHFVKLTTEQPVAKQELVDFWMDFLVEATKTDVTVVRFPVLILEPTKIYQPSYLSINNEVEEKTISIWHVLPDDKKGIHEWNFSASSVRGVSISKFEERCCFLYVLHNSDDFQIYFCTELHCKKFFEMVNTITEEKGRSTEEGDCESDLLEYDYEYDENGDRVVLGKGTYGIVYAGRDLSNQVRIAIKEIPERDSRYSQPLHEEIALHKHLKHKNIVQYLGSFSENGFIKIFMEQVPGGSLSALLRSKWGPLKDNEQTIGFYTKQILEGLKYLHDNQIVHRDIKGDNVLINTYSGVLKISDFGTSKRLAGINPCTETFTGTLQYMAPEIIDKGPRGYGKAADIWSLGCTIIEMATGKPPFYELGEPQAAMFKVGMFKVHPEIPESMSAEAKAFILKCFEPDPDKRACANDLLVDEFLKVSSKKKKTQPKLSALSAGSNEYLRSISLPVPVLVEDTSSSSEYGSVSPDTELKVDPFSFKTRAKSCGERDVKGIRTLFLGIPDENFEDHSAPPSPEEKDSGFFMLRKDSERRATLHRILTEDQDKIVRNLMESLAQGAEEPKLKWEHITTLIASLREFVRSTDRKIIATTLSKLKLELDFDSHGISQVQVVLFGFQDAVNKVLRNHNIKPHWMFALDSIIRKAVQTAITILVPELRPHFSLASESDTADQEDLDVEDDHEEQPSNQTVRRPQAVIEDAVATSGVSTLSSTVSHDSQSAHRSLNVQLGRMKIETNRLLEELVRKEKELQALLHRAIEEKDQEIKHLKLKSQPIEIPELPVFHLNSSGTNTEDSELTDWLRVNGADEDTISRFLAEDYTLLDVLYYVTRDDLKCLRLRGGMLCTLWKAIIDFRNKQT
# [10] = target: Mitogen-activated protein kinase 11 (Homo sapiens, UniProt Q15759)
# Chain of Mitogen-activated protein kinase 11 (Q15759 whole entry): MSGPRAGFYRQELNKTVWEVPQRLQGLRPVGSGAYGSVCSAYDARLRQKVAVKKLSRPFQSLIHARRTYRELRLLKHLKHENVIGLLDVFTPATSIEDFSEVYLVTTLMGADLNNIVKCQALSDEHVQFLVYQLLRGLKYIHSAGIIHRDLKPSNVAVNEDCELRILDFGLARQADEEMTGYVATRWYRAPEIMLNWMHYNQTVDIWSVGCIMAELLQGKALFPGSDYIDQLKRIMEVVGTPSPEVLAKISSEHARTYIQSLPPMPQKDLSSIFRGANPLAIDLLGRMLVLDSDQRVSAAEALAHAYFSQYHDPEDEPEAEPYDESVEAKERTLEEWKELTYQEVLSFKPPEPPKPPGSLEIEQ
# [11] = target: T3, Ras-related protein Rab-10 (Homo sapiens, UniProt P61026)
# T3 sequence (P61026 whole entry): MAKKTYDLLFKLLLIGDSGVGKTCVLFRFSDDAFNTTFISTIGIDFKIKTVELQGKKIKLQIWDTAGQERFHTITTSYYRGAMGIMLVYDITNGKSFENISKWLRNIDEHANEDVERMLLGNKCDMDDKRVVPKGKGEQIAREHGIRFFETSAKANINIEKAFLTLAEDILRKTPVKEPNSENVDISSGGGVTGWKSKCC
# [12] = target: Ribosomal protein S6 kinase alpha-6 (Homo sapiens, UniProt Q9UK32)
# [13] = target: TRAF2 and NCK-interacting protein kinase (Homo sapiens, UniProt Q9UKE5)
# Chain of TRAF2 and NCK-interacting protein kinase (Q9UKE5 whole entry): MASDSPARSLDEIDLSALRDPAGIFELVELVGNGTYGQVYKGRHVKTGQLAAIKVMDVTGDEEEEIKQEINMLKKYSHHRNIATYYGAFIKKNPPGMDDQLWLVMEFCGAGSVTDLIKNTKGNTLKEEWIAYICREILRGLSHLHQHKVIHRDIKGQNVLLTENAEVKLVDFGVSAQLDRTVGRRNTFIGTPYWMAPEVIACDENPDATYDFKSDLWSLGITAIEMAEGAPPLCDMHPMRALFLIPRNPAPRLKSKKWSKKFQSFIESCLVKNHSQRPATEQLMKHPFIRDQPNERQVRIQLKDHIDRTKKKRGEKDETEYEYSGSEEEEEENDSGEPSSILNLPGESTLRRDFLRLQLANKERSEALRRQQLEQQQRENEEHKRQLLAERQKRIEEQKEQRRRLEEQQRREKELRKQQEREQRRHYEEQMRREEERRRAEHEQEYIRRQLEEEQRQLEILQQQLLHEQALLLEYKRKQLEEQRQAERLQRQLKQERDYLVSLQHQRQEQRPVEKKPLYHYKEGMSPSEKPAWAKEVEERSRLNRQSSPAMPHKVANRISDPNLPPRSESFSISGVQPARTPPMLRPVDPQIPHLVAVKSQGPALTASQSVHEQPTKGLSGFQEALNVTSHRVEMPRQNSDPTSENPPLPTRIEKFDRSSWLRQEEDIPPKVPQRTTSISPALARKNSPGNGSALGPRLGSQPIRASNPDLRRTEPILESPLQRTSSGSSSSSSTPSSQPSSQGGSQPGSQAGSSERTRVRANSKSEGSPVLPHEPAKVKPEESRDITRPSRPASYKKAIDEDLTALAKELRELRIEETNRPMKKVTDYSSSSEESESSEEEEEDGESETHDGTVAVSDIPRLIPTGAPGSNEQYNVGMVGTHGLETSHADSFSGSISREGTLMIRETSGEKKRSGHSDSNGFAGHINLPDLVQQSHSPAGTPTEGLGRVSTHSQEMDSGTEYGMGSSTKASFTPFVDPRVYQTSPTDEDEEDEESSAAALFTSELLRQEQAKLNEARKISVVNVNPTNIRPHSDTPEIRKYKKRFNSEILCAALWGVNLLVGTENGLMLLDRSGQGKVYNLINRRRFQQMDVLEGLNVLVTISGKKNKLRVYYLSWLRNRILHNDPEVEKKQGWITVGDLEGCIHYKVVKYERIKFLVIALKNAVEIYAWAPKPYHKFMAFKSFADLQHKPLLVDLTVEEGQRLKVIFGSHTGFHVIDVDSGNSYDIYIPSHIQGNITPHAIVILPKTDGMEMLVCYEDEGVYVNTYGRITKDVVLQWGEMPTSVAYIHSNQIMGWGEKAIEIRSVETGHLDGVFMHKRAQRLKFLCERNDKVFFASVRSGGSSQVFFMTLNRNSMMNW
# [14] = target: DNA topoisomerase 2-alpha (Homo sapiens, UniProt P11388)
# Further: in the data inactive means no Kd found up to 30 µM.
# Chain of Serine/threonine-protein kinase MRCK alpha (Q5VT25 whole entry): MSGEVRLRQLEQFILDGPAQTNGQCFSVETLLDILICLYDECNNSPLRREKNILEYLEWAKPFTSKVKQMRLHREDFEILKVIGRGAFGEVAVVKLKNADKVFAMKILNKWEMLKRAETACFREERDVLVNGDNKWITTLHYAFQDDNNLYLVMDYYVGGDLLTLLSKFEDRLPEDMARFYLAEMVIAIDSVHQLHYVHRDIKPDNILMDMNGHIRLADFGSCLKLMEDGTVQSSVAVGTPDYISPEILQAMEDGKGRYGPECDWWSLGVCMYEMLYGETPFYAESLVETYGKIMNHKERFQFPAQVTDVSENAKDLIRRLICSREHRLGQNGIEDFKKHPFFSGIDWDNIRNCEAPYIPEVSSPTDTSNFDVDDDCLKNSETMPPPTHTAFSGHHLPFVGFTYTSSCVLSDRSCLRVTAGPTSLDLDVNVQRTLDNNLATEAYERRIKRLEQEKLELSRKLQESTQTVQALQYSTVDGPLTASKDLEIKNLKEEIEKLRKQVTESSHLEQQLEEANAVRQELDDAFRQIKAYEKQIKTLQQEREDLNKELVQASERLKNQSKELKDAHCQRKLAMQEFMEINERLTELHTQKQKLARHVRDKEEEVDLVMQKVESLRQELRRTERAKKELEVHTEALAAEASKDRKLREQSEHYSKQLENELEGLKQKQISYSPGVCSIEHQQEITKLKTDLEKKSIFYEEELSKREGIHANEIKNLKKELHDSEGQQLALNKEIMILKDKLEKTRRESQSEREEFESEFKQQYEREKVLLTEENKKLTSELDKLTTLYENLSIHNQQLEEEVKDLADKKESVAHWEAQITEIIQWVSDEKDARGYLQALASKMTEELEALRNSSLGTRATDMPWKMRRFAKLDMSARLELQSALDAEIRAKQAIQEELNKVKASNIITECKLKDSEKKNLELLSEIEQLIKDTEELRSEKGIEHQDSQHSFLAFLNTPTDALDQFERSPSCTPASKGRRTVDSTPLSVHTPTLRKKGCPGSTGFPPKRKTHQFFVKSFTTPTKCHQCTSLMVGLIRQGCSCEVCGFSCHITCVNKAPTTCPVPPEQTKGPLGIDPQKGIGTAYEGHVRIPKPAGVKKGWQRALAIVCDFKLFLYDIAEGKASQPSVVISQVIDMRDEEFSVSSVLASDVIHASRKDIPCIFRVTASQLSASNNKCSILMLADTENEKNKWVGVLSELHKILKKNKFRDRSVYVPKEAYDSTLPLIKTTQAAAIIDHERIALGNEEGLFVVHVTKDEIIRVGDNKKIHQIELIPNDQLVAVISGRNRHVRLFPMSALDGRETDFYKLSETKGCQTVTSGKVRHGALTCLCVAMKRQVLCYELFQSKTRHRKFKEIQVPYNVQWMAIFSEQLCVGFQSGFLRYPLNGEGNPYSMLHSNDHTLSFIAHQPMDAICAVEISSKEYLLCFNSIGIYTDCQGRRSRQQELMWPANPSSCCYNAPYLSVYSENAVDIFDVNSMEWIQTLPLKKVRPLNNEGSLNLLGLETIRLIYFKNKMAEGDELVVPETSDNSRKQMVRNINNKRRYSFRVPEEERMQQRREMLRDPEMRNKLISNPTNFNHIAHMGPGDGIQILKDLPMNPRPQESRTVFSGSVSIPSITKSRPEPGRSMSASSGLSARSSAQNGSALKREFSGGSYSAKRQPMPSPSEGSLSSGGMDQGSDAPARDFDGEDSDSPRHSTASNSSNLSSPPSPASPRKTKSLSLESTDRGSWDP
# Chain of Calcium/calmodulin-dependent protein kinase kinase 2 (Q96RR4 whole entry): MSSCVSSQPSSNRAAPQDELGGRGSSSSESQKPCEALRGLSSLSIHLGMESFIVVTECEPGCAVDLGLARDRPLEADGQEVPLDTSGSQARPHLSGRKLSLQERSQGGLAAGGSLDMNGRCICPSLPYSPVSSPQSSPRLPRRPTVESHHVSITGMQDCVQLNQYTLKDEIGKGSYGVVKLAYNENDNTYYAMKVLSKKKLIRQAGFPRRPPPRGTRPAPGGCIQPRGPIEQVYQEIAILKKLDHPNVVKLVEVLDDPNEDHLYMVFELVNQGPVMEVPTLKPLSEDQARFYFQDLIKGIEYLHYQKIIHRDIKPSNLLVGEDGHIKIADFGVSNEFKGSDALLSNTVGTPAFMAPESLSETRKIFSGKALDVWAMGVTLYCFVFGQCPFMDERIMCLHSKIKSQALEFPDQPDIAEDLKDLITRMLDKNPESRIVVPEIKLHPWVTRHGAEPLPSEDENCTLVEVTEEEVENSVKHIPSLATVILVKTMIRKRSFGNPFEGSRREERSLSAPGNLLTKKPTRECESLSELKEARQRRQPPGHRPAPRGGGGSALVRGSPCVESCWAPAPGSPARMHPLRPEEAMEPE
Compound,Kd [1],Kd [2],Kd [3],Kd [4],Kd [5],Kd [6],Kd [7],Kd [8],Kd [9],Kd [10],Kd [11],Kd [12],Kd [13],Kd [14]
CCS(=O)(=O)N1CC(CC#N)(n2cc(-c3ncnc4[nH]ccc34)cn2)C1 [BARICITINIB],> 30 µM (inactive),> 30 µM (inactive),> 30 µM (inactive),> 30 µM (inactive),> 30 µM (inactive),> 30 µM (inactive),> 30 µM (inactive),> 30 µM (inactive),> 30 µM (inactive),> 30 µM (inactive),> 30 µM (inactive),> 30 µM (inactive),> 30 µM (inactive),> 30 µM (inactive)
CN1N=C(N)c2cn([C@@H]3O[C@H](COP(=O)(O)O)[C@@H](O)[C@H]3O)c3ncnc1c23 [TRICIRIBINE PHOSPHATE],> 30 µM (inactive),> 30 µM (inactive),–,> 30 µM (inactive),> 30 µM (inactive),> 30 µM (inactive),> 30 µM (inactive),> 30 µM (inactive),> 30 µM (inactive),> 30 µM (inactive),> 30 µM (inactive),> 30 µM (inactive),> 30 µM (inactive),> 30 µM (inactive)
Cc1c(F)cc(C(=O)NC2CC2)cc1-c1ccc(C(=O)NCC(C)(C)C)cn1 [LOSMAPIMOD],> 30 µM (inactive),> 30 µM (inactive),> 30 µM (inactive),> 30 µM (inactive),> 30 µM (inactive),> 30 µM (inactive),> 30 µM (inactive),> 30 µM (inactive),> 30 µM (inactive),–,> 30 µM (inactive),> 30 µM (inactive),–,> 30 µM (inactive)
C=CC(=O)N1CCC(Oc2cc3c(Nc4ccc(Cl)c(Cl)c4F)ncnc3cc2OC)CC1 [POZIOTINIB],–,> 30 µM (inactive),> 30 µM (inactive),> 30 µM (inactive),> 30 µM (inactive),> 30 µM (inactive),> 30 µM (inactive),> 30 µM (inactive),> 30 µM (inactive),> 30 µM (inactive),> 30 µM (inactive),> 30 µM (inactive),> 30 µM (inactive),> 30 µM (inactive)
CN(C)C(=O)c1cc2cnc(Nc3ccc(N4CCNCC4)cn3)nc2n1C1CCCC1 [RIBOCICLIB],> 30 µM (inactive),> 30 µM (inactive),> 30 µM (inactive),–,> 30 µM (inactive),> 30 µM (inactive),> 30 µM (inactive),> 30 µM (inactive),> 30 µM (inactive),> 30 µM (inactive),> 30 µM (inactive),> 30 µM (inactive),> 30 µM (inactive),> 30 µM (inactive)
O=C(c1ccc(F)c(F)c1Nc1ccc(I)cc1F)N1CC(O)([C@@H]2CCCCN2)C1 [COBIMETINIB],–,> 30 µM (inactive),> 30 µM (inactive),> 30 µM (inactive),> 30 µM (inactive),> 30 µM (inactive),> 30 µM (inactive),> 30 µM (inactive),> 30 µM (inactive),> 30 µM (inactive),> 30 µM (inactive),> 30 µM (inactive),> 30 µM (inactive),> 30 µM (inactive)
Cn1cc(-c2ccc(F)c(C(F)(F)F)c2)nc1C1CCN(c2ncnc3[nH]ncc23)CC1 [LY-2584702],> 30 µM (inactive),> 30 µM (inactive),> 30 µM (inactive),> 30 µM (inactive),> 30 µM (inactive),> 30 µM (inactive),> 30 µM (inactive),> 30 µM (inactive),> 30 µM (inactive),> 30 µM (inactive),> 30 µM (inactive),> 30 µM (inactive),> 30 µM (inactive),–
COc1cc2nccc(Oc3ccc(NC(=O)Nc4cc(C)on4)c(Cl)c3)c2cc1OC [TIVOZANIB],> 30 µM (inactive),> 30 µM (inactive),> 30 µM (inactive),> 30 µM (inactive),> 30 µM (inactive),> 30 µM (inactive),–,2.18 µM (active),> 30 µM (inactive),–,> 30 µM (inactive),> 30 µM (inactive),–,> 30 µM (inactive)
CNC(=O)c1ccc(-c2cnc3ncc(Cc4ccc5ncccc5c4)n3n2)cc1F [CAPMATINIB],–,> 30 µM (inactive),> 30 µM (inactive),> 30 µM (inactive),> 30 µM (inactive),> 30 µM (inactive),> 30 µM (inactive),> 30 µM (inactive),> 30 µM (inactive),> 30 µM (inactive),–,> 30 µM (inactive),> 30 µM (inactive),> 30 µM (inactive)

# Second part, the molecule after the results:
Kd [1],Kd [2],Kd [3],Kd [4],Kd [5],Kd [6],Kd [7],Kd [8],Kd [9],Kd [10],Kd [11],Kd [12],Kd [13],Kd [14],Compound
> 30 µM (inactive),> 30 µM (inactive),> 30 µM (inactive),> 30 µM (inactive),> 30 µM (inactive),> 30 µM (inactive),> 30 µM (inactive),> 30 µM (inactive),> 30 µM (inactive),> 30 µM (inactive),> 30 µM (inactive),> 30 µM (inactive),> 30 µM (inactive),> 30 µM (inactive),C[C@@H](Nc1cc(F)cc(F)c1)c1cc(C(=O)N(C)C)cc2c(=O)cc(N3CCOCC3)oc12 [AZD-8186]
> 30 µM (inactive),> 30 µM (inactive),> 30 µM (inactive),–,> 30 µM (inactive),> 30 µM (inactive),> 30 µM (inactive),> 30 µM (inactive),> 30 µM (inactive),> 30 µM (inactive),> 30 µM (inactive),> 30 µM (inactive),> 30 µM (inactive),> 30 µM (inactive),Cc1cc([C@@H](C)Nc2ccccc2C(=O)O)c2nc(N3CCOCC3)cc(=O)n2c1 [AZD-6482]
–,9.13 µM (active),> 30 µM (inactive),> 30 µM (inactive),> 30 µM (inactive),12.2 µM (active),0.39 µM (active),1.27 µM (active),> 30 µM (inactive),> 30 µM (inactive),> 30 µM (inactive),> 30 µM (inactive),> 30 µM (inactive),> 30 µM (inactive),COc1cc(N2CCC(N3CCN(C)CC3)CC2)ccc1Nc1ncnc(Nc2ccccc2S(=O)(=O)C(C)C)n1 [ASP-3026]
> 30 µM (inactive),> 30 µM (inactive),–,> 30 µM (inactive),> 30 µM (inactive),> 30 µM (inactive),> 30 µM (inactive),> 30 µM (inactive),> 30 µM (inactive),> 30 µM (inactive),> 30 µM (inactive),23.8 µM (active),> 30 µM (inactive),> 30 µM (inactive),CN1CCC(CNc2ccc3ncc(-c4cccc(OC(F)(F)F)c4)n3n2)CC1 [SGI-1776]
